Data reported in patent US8435519B2, “Antibodies that bind alpha subunit of sodium potassium ATPase” (priority 2005, dated 2013).

How the values were obtained:
[1] = biological target: T1, D-R region of NKA (Rattus norvegicus, UniProt P06685); test: Immunofluorescent staining of rat cardiac myocytes; type: binding; conditions: ouabain 5, 10 and 20 mM
T1 construct: endogenous in cells; host or cells: isolated rat cardiac myocytes, frozen sections
Protocol: With both ouabain and SSA412: FIG. 5E: a group of cells with 5 mM ouabain at a magnification of 400×, FIG. 5F: a single cell with 5 mM ouabain at 1200×, FIG. 5G: cells with 10 mM ouabain, FIG. 5H: cells with 20 mM ouabain.
Isolated rat heart cells were incubated in 1 ml cold lysis buffer containing 150 mM NaCl, 10 mM EDTA, 1% NP-40, 1 mM Na3VO4, and 1× protease inhibitor cocktail as described, with or without antibody. Immunoprecipitates were boiled for 5 min and loaded on a 7% SDS gel, and transferred from the SDS gel to a nitrocellulose membrane. The nitrocellulose membrane was blocked with 5% nonfat milk for 1 hour and incubated with SSA412 or other control antibodies overnight at 4° C. Alkaline phosphatase conjugated secondary antibody (1:2500) was then incubated with the membrane for 1 hour and washed 3 times with TBS in 0.05% Tween-20. Color was developed using a reagent containing a mixture of NBT and BCIP (Promega Corporation, WI). For immunofluorescent staining, rat myocytes were frozen and cut on a cryostat. Sections (8 μm) of each tissue were blocked with 1% bovine serum albumin (BSA) and incubated with SSA412 (1:100) for 60 min in the presence or absence of 5, 10, and 20 mM ouabain. Washed slides were evaluated after incubation with a FITC conjugated goat anti-rabbit antibody (1:75).

[2] = tested on: α- and β-adrenergic receptors in isolated rat myocytes; test: Effect of α- and β-adrenergic receptor inhibitors on cell contraction; type: cell-based; conditions: 1 μM isoproterenol, inhibitors 7 μM each
Protocol: Cell contractions were measured in the presence or absence of SSA412 (0.5 μM) with or without inhibitors. Black circles: with 1 μM isoproterenol. Open circles: with 1 μM isoproterenol+ both prazosin and propennol (7 μM each). Black triangles: with SSA412 in the presence of both prazosin and propennol (7 μM each). Data are presented as percent of control (n=8 cells for each group).
(§1) Myocytes were placed on an inverted microscope (Zeiss model IM-35), superfused with HEPES-buffered solution at a flow rate of 1.8 ml/min, and electrically stimulated at 0.5 Hz at 23° C. Cell length was monitored from the bright-field image (650 nm to 750 nm red light illumination) by an optical edge-tracking method using a photodiode array (model 1024 SAQ, Reticon) with a 3-ms time resolution. Contraction amplitude was measured as the percentage of shortening of cell length.

[3] = tested on: isolated rat cardiac myocytes; test: Intracellular Ca2+ transients and cell contraction; type: cell-based; conditions: SSA412 + 0.5 mM peptide blocker
Protocol: Ventricular cardiac myocytes were isolated from adult Sprague-Dawley rats (2-3 months old, weight 225-300 g) using standard enzymatic technique as described previously.^1 Briefly, following anaesthesia (sodium pentobarbital, 100 mg/kg), the heart was quickly removed from the chest and aortic perfused at constant pressure at 37° C. for 3 min with a Ca^2+-free bicarbonate-based buffer containing 120 mM NaCL, 5.4 mM MgSO4, 1.2 mM NaH2PO4, 5.6 mM glucose, 20 mM NaHCO3, and 5 mM taurine, in the presence of O2 (95%)/CO2 (5%). Enzymatic digestion was initiated by adding collagenase (Worthington Type II, 1 mg/ml) to the perfusion solution. Calcium (50 μM) was added to the enzyme solution when the heart became swollen. About 7 min later, the left ventricle was quickly removed, cut into several pieces, and further digested on a shaker (60-70 rpm) for 10 min in the same enzyme solution. […]
as §1, with “length. […]” for “length.”

[4] = biological target: T2, purified ouabain-sensitive dog NKA (Canis lupus familiaris, UniProt P50997); test: NKA catalytic activity (ATPase assay, Kyte's method), purified dog NKA; type: biochemical; conditions: FIG. 7, antibody + peptide blocker
T2 construct: 30 μg of purified dog kidney NKA; from tissue; host or cells: dog kidney
Protocol: A first series of experiments were conducted testing whether antibody SSA412, binding to the D-R region of the alpha 1-subunit, affects NKA activity. NKA activity was determined based on Jack Kyte's method as previously described [17, which is hereby incorporated by reference as if set forth fully herein]. […] FIG. 2A and FIG. 2B show the time course of activation of purified rat (FIG. 2A: 0.125 mg/ml, ouabain-resistant) or dog (FIG. 2B: 0.125 mg/ml, ouabain-sensitive) NKA incubated with SSA412 (0.5 and 1.0 μM) or with 1.0 μM normal rabbit total IgG at 4° C. or at room temperature (FIG. 2C and FIG. 2D). The control is indicated by closed circles, […] SSA412 by open circles, […] SSA412 by closed triangles and […] rabbit IgG by open triangles.
NKA activity was determined based on Jack Kyte's method as previously described under various experimental conditions as indicated in FIG. 2. All NKA activities in different experiments are ouabain-sensitive activity. Purified ouabain-resistant rat NKA and ouabain-sensitive dog NKA were used to verify the data. Enzymes were incubated with or without SSA412 for 60 min at room temperature. The reaction was initiated by adding different concentrations of MgATP in a final volume of 0.25 ml at 37° C. for 30 min and terminated by adding 0.75 ml quench solution and 0.025 ml developer. Color was developed for 30 minutes at room temperature and the concentration of phosphate was then determined at 700 nm using a spectrophotometer. NKA turnover number (kcat) was calculated using the equation kcat=Vmax/Et, where Vmax is the maximal velocity (rate of reaction) and Et represents enzyme concentration.

Compound: C[C@@H]1O[C@@H](O[C@H]2C[C@@H](O)[C@]3(CO)[C@H]4[C@H](O)C[C@]5(C)[C@@H](C6=CC(=O)OC6)CC[C@]5(O)[C@@H]4CC[C@]3(O)C2)[C@H](O)[C@H](O)[C@H]1O [Ouabain, ouabain]
- competition with SSA412 binding to the D-R region of NKA [1]: does not compete

Compound: COc1cc2nc(N3CCN(C(=O)c4ccco4)CC3)nc(N)c2cc1OC [prazosin]
- effect of inhibitor on action of the agonist isoproterenol [2]: eliminated

Compound: CC(C)NCC(O)COc1cccc2ccccc12 (stereo not shown) [propennol]
- effect of inhibitor on action of the agonist isoproterenol [2]: eliminated

Compound: DVEDSYGQQWTYEQR (Activation site of the (Na+K)-ATPase)
- SSA412-induced increase in calcium and contraction in presence of peptide blocker [3]: blocked

Compound: KRQPRNPKTDKLVNE (Activation site of the (Na+K)-ATPase) [PB95]
- antibody-induced increase in NKA in presence of respective peptide blocker [4]: blocked

Compound: RSATEEEPPNDD (Activation site of the (Na+K)-ATPase) [PB78]
- antibody-induced increase in NKA in presence of respective peptide blocker [4]: blocked

Compound: VPAISLAYEQAESD (VPASLAYEQAESD; Activation site of the (Na+K)-ATPase) [PB97]
- antibody-induced increase in NKA in presence of respective peptide blocker [4]: blocked
